Among the data in US20250340569A1, “INHIBITORS OF KIF18A AND USES THEREOF” (Insilico Medicine IP Limited, priority 2023, published 2025) are IC50 values, retold here.

One may read the IC50 as the midpoint of a concentration-inhibition curve. High values mean lower potency, low ones higher potency.

The first assay has as its system OVCAR-3. As to the kind of experiment: OVCAR3 CTG assay. Format: cell-based. Conditions: CellTiter-Glo, 6 days incubation. The text has this: Example B2: OVCAR3 CTG Assay
• a) Preparation of complete medium: Added FBS and appropriate additives according to the information sheet provided by the vendor. Mix gently. • b) Checked the cell name and complete medium and passage number marked on the flask. For adherent cell lines, refer to c to k. For suspension cell lines, refer to g to k. • c) Removed and discarded culture medium using a vacuum pump. • d) Briefly rinsed the cell layer with 0.25% (w/v) Trypsin-0.038% (w/v) EDTA solution to remove all traces of serum that contains trypsin inhibitor. • e) Added 3.0 ml of Trypsin-EDTA solution to flask and observed cells under an inverted microscope until cell layer is dispersed. • f) Added 9.0 ml of complete growth medium and aspirated cells by gently pipetting. • g) Transfered the cell suspension to a centrifuge tube and centrifuged at 1000 rpm for 4 minutes. • h) Discarded the supernatant using a vacuum pump. • i) Added appropriate volume of complete medium. Suspended the cell pellet by gently pipetting. • j) Counted the cell numbers with Vi-cell XR and adjusted cells to appropriate density. • k) Added 190 μL of cell suspension to 96-well opaque-walled clear bottom plates according to the planned plate layout and placed the plates in the CO2 incubator overnight.
2) Compound Stock Preparation:
• a) Plate preparation of testing articles:
The compounds were dissolved in DMSO to prepare 10 mM stock solution. The start working concentration (2 mM) was prepared with DMSO.
b) Staurosporine Plate Preparation:
0.4 mM Staurosporine was prepared in DMSO at working concentration.
The 20× compound containing medium was prepared according to the plate map. 10 μL of 20× compound containing medium was added into each well of the assay plates. Centrifuged at 1000 rpm for 1 minute. The total dilution was 200-fold.
3) Cells were Incubated with the Compounds for 6 Days at 5% CO2, 37° C.
Assay Measurement for CTG Assay
1) Preparation of Reagents
• a) Thawed the CellTiter-Glo buffer and equilibrated to room temperature prior to use. • b) Equilibrated the lyophilized CellTiter-Glo substrate to room temperature prior to use. • c) Transfered the appropriate volume of CellTiter-Glo buffer into the amber bottle containing CellTiter-Glo substrate to reconstitute the lyophilized enzyme/substrate mixture. This formed the CellTiter-Glo reagent. • d) Mixed by gently vortexing, swirling or by inverting the contents to obtain a homogeneous solution. The CellTiter-Glo substrate went into solution easily in less than one minute.
• a) Observed the cell morphology under an inverted microscope after corresponding treatment. • b) Equilibrated the plate and its contents to room temperature for approximately 30 minutes. • c) Added 100 μL of CellTiter-Glo reagent to the assay plate by Multidrop Combi instrument. • d) Mixed contents for 10 minutes on an orbital shaker to induce cell lysis. • e) Allowed the plate to incubate at room temperature for 10 minutes to stabilize luminescent signal. • f) Pasted the clear bottom with white back seal and record luminescence with Envision. The settings should be: Luminescence, measurement time 0.1 s.
(In general: ATP-based viability assays read luminescence as a measure of living cells.)
The compound `Cc1cc2nc(n1)NC1CC(C1)OCC1(C(F)(F)F)CCN(CC1)c1cc(NS(=O)(=O)CCO)ccc1C(=O)N2` [EX54] displayed an IC50 of 10 to 100 nM.

The assay is the same for the next values; noted with them: Homo sapiens, OVCAR-3, 144 h; CellTiter-Glo, 6 days incubation.
`O=C1Nc2cccc(n2)N2CCO[C@@H](COCC3(C(F)(F)F)CCN(CC3)c3cc(NS(=O)(=O)CCO)ncc31)C2` (stereo in doubt) [EX92-B] returned a half-inhibitory concentration (IC50) of less than 10 nM.
`Cc1cc2nc(n1)N1CCO[C@@H](COCC3(C(F)(F)F)CCN(CC3)c3cc(NS(=O)(=O)CCO)ccc3C(=O)N2)C1` (stereo in doubt) [EX96-B] registered a concentration for half-maximal inhibition (IC50) of 10 to 100 nM.
Take `CC12CCN(CC1)c1cc(S(=O)(=O)NC(C)(C)C)ccc1C(=O)Nc1cccc(n1)OCCCOC2` [EX07]: the IC50 is 10 to 100 nM.
Turning to `CC12CCN(CC1)c1cc(S(=O)(=O)NC(C)(C)C)ccc1C(=O)Nc1ccc(=O)n(n1)CCCCOC2` [EX14], the IC50 was 10 to 100 nM.
Still for that read-out and setting: the same measure for `Cc1cc2nc(n1)NCC(F)(F)COCC1(C)CCN(CC1)c1cc(NS(=O)(=O)CCO)ccc1C(=O)N2` [EX28]: 10 to 100 nM; for `Cc1cc2nc(n1)NCCCOCC1(C)CCN(CC1)c1nc(NC(C)(C)CO)ccc1C(=O)N2` [EX29]: 100 to 1000 nM; for `Cc1cc2nc(n1)N(C)CCCOCC1(C(F)(F)F)CCN(CC1)c1cc(S(=O)(=O)NC(C)(C)C)ccc1C(=O)N2` [EX30]: 10 to 100 nM.
`Cc1cc2nc(n1)NC[C@H](C(F)(F)F)COCC1(C)CCN(CC1)c1cc(NS(=O)(=O)CCO)ccc1C(=O)N2` [EX32-A]: the IC50 was in the range of 10 to 100 nM.
On the same count and under the same terms, the same measure for `Cc1cc2nc(n1)NC[C@@H](C(F)(F)F)COCC1(C)CCN(CC1)c1cc(NS(=O)(=O)CCO)ccc1C(=O)N2` [EX32-B]: 10 to 100 nM; for `CC12CCN(CC1)c1cc(NS(=O)(=O)CCO)ccc1C(=O)Nc1cc(C(F)(F)F)nc(n1)NCCCOC2` [EX39]: 10 to 100 nM; for `Cc1cc2nc(n1)N(C)CCCOCC1(C3CC3)CCN(CC1)c1cc(NS(=O)(=O)CCO)ccc1C(=O)N2` [EX41]: 100 to 1000 nM.
Same read-out and setting: the same measure for `Cc1cc2nc(n1)NCC(C)COCC1(C#N)CCN(CC1)c1cc(NS(=O)(=O)CCO)ccc1C(=O)N2` (stereo not shown) [EX42]: 10 to 100 nM.
The same measure, in the same setting: the same measure for `Cc1cc2nc(n1)NCC1(CC1)COCC1(C(F)(F)F)CCN(CC1)c1cc(NS(=O)(=O)CCO)ccc1C(=O)N2` [EX43]: less than 10 nM; for `[2H]C([2H])([2H])N1CCCOCC2(C(F)(F)F)CCN(CC2)c2cc(NS(=O)(=O)CCO)ccc2C(=O)Nc2cc(C)nc1n2` [EX44]: 10 to 100 nM; for `CO[C@H]1CNc2nc(C)cc(n2)NC(=O)c2ccc(NS(=O)(=O)CCO)cc2N2CCC(C(F)(F)F)(CC2)COC1` [EX46-A]: 10 to 100 nM.
As for `CO[C@@H]1CNc2nc(C)cc(n2)NC(=O)c2ccc(NS(=O)(=O)CCO)cc2N2CCC(C(F)(F)F)(CC2)COC1` [EX46-B], the IC50 fell in the range of 10 to 100 nM.
In turn, `[2H]C([2H])([2H])N1CCCCOCC2(C(F)(F)F)CCN(CC2)c2cc(NS(=O)(=O)CCO)ccc2C(=O)Nc2cc(C)nc1n2` [EX47] registered an IC50 of 1000 to 10000 nM.
Same read-out and setting: the same measure for `O=C1NCCOCC2(C(F)(F)F)CCN(CC2)c2cc(NS(=O)(=O)CCO)ccc2C(=O)Nc2cccc1n2` [EX49]: 100 to 1000 nM; for `Cc1cc2nc(n1)NC/C=C\COCC1(C(F)(F)F)CCN(CC1)c1cc(NS(=O)(=O)CCO)ccc1C(=O)N2` [EX51]: 10 to 100 nM.
`Cc1cc2nc(n1)NC/C=C/COCC1(C(F)(F)F)CCP(=O)(CC1)c1cc(NS(=O)(=O)CCO)ccc1C(=O)N2` [EX52] displayed an IC50 of 1000 to 10000 nM.
Compound `Cc1cc2nc(n1)NC1CC(C1)OCC1(C(F)(F)F)CCN(CC1)c1cc(NS(=O)(=O)CCO)ccc1C(=O)N2` [EX53] returned a concentration for half-maximal inhibition (IC50) of 10 to 100 nM.
`CC1CNc2cccc(n2)NC(=O)c2ccc(NS(=O)(=O)CCO)cc2N2CCC(C(F)(F)F)(CC2)COC1` (stereo not shown) [EX56] gave an IC50 of 10 to 100 nM.
Still for that read-out and setting: the same measure for `[2H]C([2H])([2H])N1CCCCCC2(C(F)(F)F)CCN(CC2)c2cc(NS(=O)(=O)CCO)ccc2C(=O)Nc2cccc1n2` [EX60]: 10 to 100 nM; for `[2H]C([2H])([2H])N1CCCOCC2(C(F)(F)F)CCN(CC2)c2cc(NS(=O)(=O)CCO)ccc2C(=O)Nc2ccc(F)c1n2` [EX61]: 10 to 100 nM.
